From patent US10080739B2, “Aryl imidazoles and their use as anti-cancer agents” (Aptose Biosciences Inc., priority 2003, dated 2018)

Columns and labels:
PKBα = molecular target: T1, PKBα (Homo sapiens, UniProt P31749); assay: kinase profiler, PKBα; assay type: biochemical; conditions: 10 μM compound, 100 μM ATP, mean of % control
T1 construct: purchased Upstate Biotechnologies (kinase profiler service)
Method: (§1) Compound 45 was tested for its ability to function as a kinase inhibitor using the kinase profiler service from Upstate Biotechnologies. The general protocol employed is as follows: recombinant kinases were incubated with specific substrates, 10 mM MgAcetate, and [γ-^33P-ATP]. The reaction was initiated by the addition of MgATP mix. After incubation at room temperature for 40 minutes, the reaction was stopped by the addition of 5 μl of a 3% phosphoric acid solution. 10 μl of the reaction was then spotted on to a P30 filtermat and washed 3 times for 5 min. in 75 mM phosphoric acid and once in methanol prior to drying and scintillation counting. Each reaction was performed in duplicate with 100 μM ATP −/+10 μM compound 45. Results are presented in Table IV and are expressed as the mean of % control (no compound). PI 3-kinase-γ (PI3K-γ) activity was determined with the PIProfiler™ assay, which measures the binding of the GRP1 pleckstrin homology (PH) domain to PIP3, the product of PI3K acting on its physiological substrate PIP2.

TrkA = molecular target: T2, TrkA (Homo sapiens, UniProt P04629); assay: kinase profiler, TrkA; assay type: biochemical; conditions: 10 μM compound, 100 μM ATP, mean of % control
T2 construct: purchased Upstate Biotechnologies (kinase profiler service)
Method: as §1

Fms = molecular target: T3, Fms (Homo sapiens, UniProt P07333); assay: kinase profiler, Fms; assay type: biochemical; conditions: 10 μM compound, 100 μM ATP, mean of % control
T3 construct: purchased Upstate Biotechnologies (kinase profiler service)
Method: as §1

PRK2 = molecular target: T4, PRK2 (Homo sapiens, UniProt Q16513); assay: kinase profiler, PRK2; assay type: biochemical; conditions: 10 μM compound, 100 μM ATP, mean of % control
T4 construct: purchased Upstate Biotechnologies (kinase profiler service)
Method: as §1

SAPK3 = molecular target: T5, SAPK3 (Homo sapiens, UniProt P53778); assay: kinase profiler, SAPK3; assay type: biochemical; conditions: 10 μM compound, 100 μM ATP, mean of % control
T5 construct: purchased Upstate Biotechnologies (kinase profiler service)
Method: as §1

Plk3 = molecular target: T6, Plk3 (Homo sapiens, UniProt Q9H4B4); assay: kinase profiler, Plk3; assay type: biochemical; conditions: 10 μM compound, 100 μM ATP, mean of % control
T6 construct: purchased Upstate Biotechnologies (kinase profiler service)
Method: as §1

SGK = molecular target: T7, SGK (Homo sapiens, UniProt O00141); assay: kinase profiler, SGK; assay type: biochemical; conditions: 10 μM compound, 100 μM ATP, mean of % control
T7 construct: purchased Upstate Biotechnologies (kinase profiler service)
Method: as §1

JNK3 = molecular target: T8, JNK3 (Homo sapiens, UniProt P53779); assay: kinase profiler, JNK3; assay type: biochemical; conditions: 10 μM compound, 100 μM ATP, mean of % control
T8 construct: purchased Upstate Biotechnologies (kinase profiler service)
Method: as §1

PDGFRα = molecular target: T9, PDGFRα (Homo sapiens, UniProt P16234); assay: kinase profiler, PDGFRα; assay type: biochemical; conditions: 10 μM compound, 100 μM ATP, mean of % control
T9 construct: purchased Upstate Biotechnologies (kinase profiler service)
Method: as §1

HT-29 colon cancer cells = assay: growth suppression of HT-29 colon cancer cells; assay type: cell-based; conditions: Homo sapiens
[1] = test system: A498 renal carcinoma cells; assay: morphological changes (vacuoles), A498; assay type: cell-based, human; conditions: treatment for 24 hours
Description: These vacuoles are not formed in DMSO- or doxorubicin-treated cells. Moreover, the nuclear membrane is no longer evident in the phase-contrast images of cells treated with compound 45, even though the nucleus is still intact, as shown by DAPI staining.

ROCK-II = molecular target: T10, ROCK-II (Homo sapiens, UniProt O75116); assay: kinase profiler, ROCK-II; assay type: biochemical; conditions: 10 μM compound, 100 μM ATP, mean of % control
T10 construct: purchased Upstate Biotechnologies (kinase profiler service)
Method: as §1

p70S6K = assay: kinase profiler, p70S6K; assay type: biochemical, human; conditions: 10 μM compound, 100 μM ATP, mean of % control
Method: as §1

CHK1 = molecular target: T11, CHK1 (Homo sapiens, UniProt O14757); assay: kinase profiler, CHK1; assay type: biochemical; conditions: 10 μM compound, 100 μM ATP, mean of % control
T11 construct: purchased Upstate Biotechnologies (kinase profiler service)
Method: as §1

MST2 = molecular target: T12, MST2 (Homo sapiens, UniProt Q13188); assay: kinase profiler, MST2; assay type: biochemical; conditions: 10 μM compound, 100 μM ATP, mean of % control
T12 construct: purchased Upstate Biotechnologies (kinase profiler service)
Method: as §1

EGFR = molecular target: T13, EGFR (Homo sapiens, UniProt P00533); assay: kinase profiler, EGFR; assay type: biochemical; conditions: 10 μM compound, 100 μM ATP, mean of % control
T13 construct: purchased Upstate Biotechnologies (kinase profiler service)
Method: as §1

PI3K-δ = molecular target: T14, PI3K-δ (Homo sapiens, UniProt O00329); assay: kinase profiler, PI3K-δ; assay type: biochemical; conditions: 10 μM compound, mean of % control
T14 construct: purchased Upstate Biotechnologies (kinase profiler service)
Method: as §1

IKKα = molecular target: T15, IKKα (Homo sapiens, UniProt O15111); assay: kinase profiler, IKKα; assay type: biochemical; conditions: 10 μM compound, 100 μM ATP, mean of % control
T15 construct: purchased Upstate Biotechnologies (kinase profiler service)
Method: as §1

BRK = molecular target: T16, BRK (Homo sapiens, UniProt Q13882); assay: kinase profiler, BRK; assay type: biochemical; conditions: 10 μM compound, 100 μM ATP, mean of % control
T16 construct: purchased Upstate Biotechnologies (kinase profiler service)
Method: as §1

CaMKIV = molecular target: T17, CaMKIV (Homo sapiens, UniProt Q16566); assay: kinase profiler, CaMKIV; assay type: biochemical; conditions: 10 μM compound, 100 μM ATP, mean of % control
T17 construct: purchased Upstate Biotechnologies (kinase profiler service)
Method: as §1

EphA2 = molecular target: T18, EphA2 (Homo sapiens, UniProt P29317); assay: kinase profiler, EphA2; assay type: biochemical; conditions: 10 μM compound, 100 μM ATP, mean of % control
T18 construct: purchased Upstate Biotechnologies (kinase profiler service)
Method: as §1

CaMKII = assay: kinase profiler, CaMKII; assay type: biochemical, human; conditions: 10 μM compound, 100 μM ATP, mean of % control
Method: as §1

PI3K-β = molecular target: T19, PI3K-β (Homo sapiens, UniProt P42338); assay: kinase profiler, PI3K-β; assay type: biochemical; conditions: 10 μM compound, mean of % control
T19 construct: purchased Upstate Biotechnologies (kinase profiler service)

Fes = molecular target: T20, Fes (Homo sapiens, UniProt P07332); assay: kinase profiler, Fes; assay type: biochemical; conditions: 10 μM compound, 100 μM ATP, mean of % control
T20 construct: purchased Upstate Biotechnologies (kinase profiler service)
Method: as §1

MSK1 = molecular target: T21, MSK1 (Homo sapiens, UniProt O75582); assay: kinase profiler, MSK1; assay type: biochemical; conditions: 10 μM compound, 100 μM ATP, mean of % control
T21 construct: purchased Upstate Biotechnologies (kinase profiler service)
Method: as §1

MAPK1 = molecular target: T22, MAPK1 (Homo sapiens, UniProt P27361); assay: kinase profiler, MAPK1; assay type: biochemical; conditions: 10 μM compound, 100 μM ATP, mean of % control
T22 construct: purchased Upstate Biotechnologies (kinase profiler service)
Method: as §1

SRC = molecular target: T23, SRC (Homo sapiens, UniProt P12931); assay: kinase profiler, SRC; assay type: biochemical; conditions: 10 μM compound, 100 μM ATP, mean of % control
T23 construct: purchased Upstate Biotechnologies (kinase profiler service)
Method: as §1

[2] = test system: panel of 60 human cancer cell lines; assay: NCI/DTP in vitro anticancer screen, 60 cell lines; assay type: cell-based; conditions: 60 cell; NCI panel of 60 human cancer cell lines, value per compound (FIG. 10A); read-out: GI50 (growth inhibition by 50%)
Method: The twenty-three compounds of Formula I shown below were evaluated for their antiproliferative effects in a panel of 60 human cancer cell lines as part of the in vitro anticancer screening services provided by the DTP (Developmental Therapeutics Program) of the US National Cancer Institute (NCI) U.S. National Cancer Institute (NCI) of the National Institutes of Health (NIH) in […], Md.
The NCI conducts a standard 48/72 hour 60 cell line assay and an in vitro time course assay as described in Alley et al. (Cancer Res (1988) 48:589). In the standard 60 cell line assay, a minimum of 5 concentrations of the test compound are tested at 10-fold dilutions against 60 cell lines and cell growth is assayed at 48 and 72 hours using a sulphorhodamine B assay. For the time course analysis, tumour cells are treated with the test compound at various time points, then washed and grown in medium free of the test compound until the end of the experiment at 144 hrs. This assay employs 20% FBS to better approximate the minimum c×t (concentrations and times) test compound exposure conditions that are required to achieve activity in vivo. Cell growth is quantified by an MTT assay (similar to the XTT assay described above) and the concentration of the test compound required for growth inhibition is determined. […]

T3 sequence (P07333 20-972): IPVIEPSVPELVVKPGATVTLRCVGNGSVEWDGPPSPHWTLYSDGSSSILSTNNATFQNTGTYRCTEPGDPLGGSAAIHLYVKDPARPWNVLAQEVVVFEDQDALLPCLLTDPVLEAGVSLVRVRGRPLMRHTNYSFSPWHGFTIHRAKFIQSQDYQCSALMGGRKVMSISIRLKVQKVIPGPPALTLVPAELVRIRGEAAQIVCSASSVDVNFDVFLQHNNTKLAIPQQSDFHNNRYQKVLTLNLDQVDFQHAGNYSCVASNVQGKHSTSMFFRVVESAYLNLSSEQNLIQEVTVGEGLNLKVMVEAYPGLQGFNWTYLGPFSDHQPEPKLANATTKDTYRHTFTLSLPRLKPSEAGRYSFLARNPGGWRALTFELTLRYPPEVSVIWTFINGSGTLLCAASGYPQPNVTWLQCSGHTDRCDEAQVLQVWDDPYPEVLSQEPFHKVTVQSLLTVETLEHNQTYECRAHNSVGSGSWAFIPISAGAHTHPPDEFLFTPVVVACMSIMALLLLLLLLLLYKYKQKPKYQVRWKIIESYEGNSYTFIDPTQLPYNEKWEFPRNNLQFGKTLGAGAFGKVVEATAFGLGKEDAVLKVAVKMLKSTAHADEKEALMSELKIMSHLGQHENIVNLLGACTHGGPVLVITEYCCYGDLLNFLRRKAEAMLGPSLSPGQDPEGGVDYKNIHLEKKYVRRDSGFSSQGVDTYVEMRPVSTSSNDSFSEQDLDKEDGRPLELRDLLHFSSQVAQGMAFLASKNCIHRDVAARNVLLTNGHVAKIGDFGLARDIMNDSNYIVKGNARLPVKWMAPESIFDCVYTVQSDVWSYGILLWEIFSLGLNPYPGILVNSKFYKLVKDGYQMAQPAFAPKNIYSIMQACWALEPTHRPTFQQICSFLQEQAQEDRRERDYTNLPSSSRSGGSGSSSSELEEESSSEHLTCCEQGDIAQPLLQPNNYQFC
T12 sequence (Q13188 whole entry): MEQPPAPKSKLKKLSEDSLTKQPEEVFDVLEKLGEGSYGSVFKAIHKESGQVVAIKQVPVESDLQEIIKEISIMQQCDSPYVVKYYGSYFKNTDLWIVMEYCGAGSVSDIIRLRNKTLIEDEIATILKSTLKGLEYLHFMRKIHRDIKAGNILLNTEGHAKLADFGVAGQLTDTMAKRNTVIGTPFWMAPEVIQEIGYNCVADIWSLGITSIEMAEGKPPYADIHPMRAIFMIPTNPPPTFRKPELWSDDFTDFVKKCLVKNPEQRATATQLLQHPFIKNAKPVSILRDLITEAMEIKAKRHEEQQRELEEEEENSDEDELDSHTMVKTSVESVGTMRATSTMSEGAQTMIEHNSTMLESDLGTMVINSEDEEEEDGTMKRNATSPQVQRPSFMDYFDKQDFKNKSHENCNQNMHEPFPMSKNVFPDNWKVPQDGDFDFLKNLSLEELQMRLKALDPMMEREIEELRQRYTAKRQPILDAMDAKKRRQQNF
T9 sequence (P16234 24-1089): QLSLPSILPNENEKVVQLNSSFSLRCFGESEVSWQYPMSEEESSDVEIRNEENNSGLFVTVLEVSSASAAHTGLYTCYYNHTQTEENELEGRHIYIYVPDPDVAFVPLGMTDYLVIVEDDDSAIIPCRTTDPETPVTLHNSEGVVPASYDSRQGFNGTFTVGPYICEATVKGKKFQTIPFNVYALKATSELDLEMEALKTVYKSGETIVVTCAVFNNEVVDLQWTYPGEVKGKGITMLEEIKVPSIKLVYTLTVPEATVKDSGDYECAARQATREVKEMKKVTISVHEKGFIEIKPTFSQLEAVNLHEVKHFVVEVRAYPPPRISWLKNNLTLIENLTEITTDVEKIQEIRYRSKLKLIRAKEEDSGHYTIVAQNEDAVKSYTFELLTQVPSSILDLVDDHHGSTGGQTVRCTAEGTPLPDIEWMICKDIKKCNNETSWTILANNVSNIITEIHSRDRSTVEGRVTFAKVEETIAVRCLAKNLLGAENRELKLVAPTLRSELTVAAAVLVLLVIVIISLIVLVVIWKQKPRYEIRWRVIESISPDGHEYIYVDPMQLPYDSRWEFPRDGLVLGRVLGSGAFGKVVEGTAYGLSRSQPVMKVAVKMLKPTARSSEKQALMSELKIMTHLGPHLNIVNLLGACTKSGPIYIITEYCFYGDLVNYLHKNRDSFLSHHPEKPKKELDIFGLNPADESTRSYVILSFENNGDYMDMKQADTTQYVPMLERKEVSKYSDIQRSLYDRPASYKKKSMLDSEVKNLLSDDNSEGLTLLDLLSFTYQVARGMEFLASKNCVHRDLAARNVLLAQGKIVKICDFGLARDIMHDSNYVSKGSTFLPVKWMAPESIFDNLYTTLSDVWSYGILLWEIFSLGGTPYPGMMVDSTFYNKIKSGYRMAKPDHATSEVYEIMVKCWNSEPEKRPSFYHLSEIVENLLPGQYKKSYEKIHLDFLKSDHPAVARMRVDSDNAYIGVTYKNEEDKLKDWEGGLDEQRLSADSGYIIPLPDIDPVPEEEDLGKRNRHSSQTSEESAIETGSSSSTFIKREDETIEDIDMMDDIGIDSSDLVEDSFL
T20 sequence (P07332 whole entry): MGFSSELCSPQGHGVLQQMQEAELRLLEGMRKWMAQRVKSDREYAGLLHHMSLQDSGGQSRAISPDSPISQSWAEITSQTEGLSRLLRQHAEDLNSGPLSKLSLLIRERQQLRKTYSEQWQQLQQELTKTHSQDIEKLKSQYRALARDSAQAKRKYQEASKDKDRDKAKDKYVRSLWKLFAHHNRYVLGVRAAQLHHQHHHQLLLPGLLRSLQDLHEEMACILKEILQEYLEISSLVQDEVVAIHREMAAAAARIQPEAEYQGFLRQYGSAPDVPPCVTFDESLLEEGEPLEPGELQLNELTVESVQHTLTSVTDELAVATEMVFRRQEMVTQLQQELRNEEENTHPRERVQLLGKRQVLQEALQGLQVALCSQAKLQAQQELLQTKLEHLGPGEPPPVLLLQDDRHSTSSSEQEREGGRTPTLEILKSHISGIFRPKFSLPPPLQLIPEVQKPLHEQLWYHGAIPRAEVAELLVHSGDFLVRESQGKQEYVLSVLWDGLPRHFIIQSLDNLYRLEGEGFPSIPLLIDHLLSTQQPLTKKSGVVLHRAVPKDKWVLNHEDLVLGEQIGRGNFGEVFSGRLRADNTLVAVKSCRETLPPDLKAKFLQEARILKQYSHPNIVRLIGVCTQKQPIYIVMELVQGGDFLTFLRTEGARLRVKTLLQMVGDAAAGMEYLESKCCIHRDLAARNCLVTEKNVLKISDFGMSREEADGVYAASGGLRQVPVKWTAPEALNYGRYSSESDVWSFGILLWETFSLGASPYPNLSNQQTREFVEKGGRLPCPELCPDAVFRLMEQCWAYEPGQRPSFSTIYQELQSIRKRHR
T11 sequence (O14757 whole entry): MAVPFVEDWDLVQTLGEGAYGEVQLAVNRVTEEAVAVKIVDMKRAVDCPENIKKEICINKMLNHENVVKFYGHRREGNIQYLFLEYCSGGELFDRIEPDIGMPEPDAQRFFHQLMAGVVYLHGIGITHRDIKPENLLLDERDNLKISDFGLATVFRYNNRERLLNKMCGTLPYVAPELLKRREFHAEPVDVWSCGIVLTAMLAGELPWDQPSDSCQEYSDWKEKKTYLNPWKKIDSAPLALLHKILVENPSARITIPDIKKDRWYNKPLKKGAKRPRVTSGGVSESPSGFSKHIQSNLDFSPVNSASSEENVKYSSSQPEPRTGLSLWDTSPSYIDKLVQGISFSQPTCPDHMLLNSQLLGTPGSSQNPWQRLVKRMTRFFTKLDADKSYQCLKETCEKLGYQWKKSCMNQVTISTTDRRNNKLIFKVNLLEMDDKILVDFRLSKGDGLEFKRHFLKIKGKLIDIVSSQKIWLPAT
T5 sequence (P53778 whole entry): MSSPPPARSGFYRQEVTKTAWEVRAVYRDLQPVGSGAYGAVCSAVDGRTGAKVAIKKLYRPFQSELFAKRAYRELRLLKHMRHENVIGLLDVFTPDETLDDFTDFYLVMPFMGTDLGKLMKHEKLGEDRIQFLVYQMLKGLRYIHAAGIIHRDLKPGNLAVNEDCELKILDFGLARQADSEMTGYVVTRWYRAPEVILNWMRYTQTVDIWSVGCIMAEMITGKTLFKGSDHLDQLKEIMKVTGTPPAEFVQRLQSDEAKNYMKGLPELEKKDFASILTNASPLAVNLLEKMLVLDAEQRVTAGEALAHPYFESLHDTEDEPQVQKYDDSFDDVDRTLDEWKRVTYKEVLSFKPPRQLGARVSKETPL
T23 sequence (P12931 whole entry): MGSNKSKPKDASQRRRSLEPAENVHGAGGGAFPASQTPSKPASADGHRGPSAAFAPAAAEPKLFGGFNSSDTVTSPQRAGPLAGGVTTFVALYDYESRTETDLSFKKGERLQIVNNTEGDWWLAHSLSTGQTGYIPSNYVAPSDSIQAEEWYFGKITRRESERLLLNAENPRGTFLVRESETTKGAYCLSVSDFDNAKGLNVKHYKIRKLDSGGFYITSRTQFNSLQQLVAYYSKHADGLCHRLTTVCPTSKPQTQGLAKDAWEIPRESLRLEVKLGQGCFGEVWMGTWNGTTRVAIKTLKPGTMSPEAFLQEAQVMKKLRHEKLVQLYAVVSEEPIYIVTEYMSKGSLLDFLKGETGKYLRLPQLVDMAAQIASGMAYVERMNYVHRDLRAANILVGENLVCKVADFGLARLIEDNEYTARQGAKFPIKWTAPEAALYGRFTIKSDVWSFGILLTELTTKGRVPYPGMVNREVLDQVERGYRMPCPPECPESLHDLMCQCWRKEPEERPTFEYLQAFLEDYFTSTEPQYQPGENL

Brc1ccc2[nH]cc(-c3nc4c5ccccc5c5ccccc5c4[nH]3)c2c1 [Compound 45]
activity at 10 µM (PKBα): 95% | activity at 10 µM (TrkA): 56% | activity at 10 µM (Fms): 135% | activity at 10 µM (PRK2): 83% | activity at 10 µM (SAPK3): 54% | activity at 10 µM (Plk3): 132% | activity at 10 µM (SGK): 89% | activity at 10 µM (JNK3): 121% | activity at 10 µM (PDGFRα): 117% | GI50 (HT-29 colon cancer cells): 2600 nM | formation of vacuoles [1]: formation of large vacuoles within the cytoplasm | activity at 10 µM (ROCK-II): 86% | % activity (p70S6K): 64% | activity at 10 µM (CHK1): 111% | activity at 10 µM (MST2): 77% | activity at 10 µM (EGFR): 105% | activity at 10 µM (PI3K-δ): 9% | activity at 10 µM (IKKα): 150% | activity at 10 µM (BRK): 112% | activity at 10 µM (CaMKIV): 98% | activity at 10 µM (EphA2): 95% | % activity (CaMKII): 32% | activity at 10 µM (PI3K-β): 11% | activity at 10 µM (Fes): 99% | activity at 10 µM (MSK1): 76% | activity at 10 µM (MAPK1): 85% | activity at 10 µM (SRC): 102% | GI50 [2]: 2000 nM
